Reference: ChEMBL document CHEMBL4229569, “Structure-Based Design of 1-Heteroaryl-1,3-propanediamine Derivatives as a Novel Series of CC-Chemokine Receptor 5 Antagonists” (J Med Chem, 2018)

Tests used:
[1] = target: C-C chemokine receptor type 5 (Homo sapiens, UniProt P51681); experiment: Antagonist activity at CCR5 (unknown origin) expressed in HEK293 cells co-expressing Galpha16 assessed as inhibition of RANTES-induced calcium flux preincubated for 10 mins followed by RANTES addition by fluo-4AM-based fluorescence assay; assay type: functional, cell-based
Chain of C-C chemokine receptor type 5 (P51681 whole entry): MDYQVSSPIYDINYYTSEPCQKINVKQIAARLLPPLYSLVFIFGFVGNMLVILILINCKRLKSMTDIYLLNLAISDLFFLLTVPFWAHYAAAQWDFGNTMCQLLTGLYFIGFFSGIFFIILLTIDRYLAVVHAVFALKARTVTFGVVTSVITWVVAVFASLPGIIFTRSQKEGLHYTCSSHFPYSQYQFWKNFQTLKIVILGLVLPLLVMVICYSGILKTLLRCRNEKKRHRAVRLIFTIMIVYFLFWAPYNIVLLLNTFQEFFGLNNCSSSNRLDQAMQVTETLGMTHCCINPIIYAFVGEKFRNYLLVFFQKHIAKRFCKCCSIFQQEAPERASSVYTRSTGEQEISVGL

[2] = Cytotoxicity against human TZM-bl cells after 48 hrs by MTT assay; assay type: cell-based
[3] = Cmax in Sprague-Dawley rat at 20 mg/kg, po by LC-MS/MS analysis; assay type: ADME, organism-based; set-up: dose 20 mg/kg, route oral; details: in vivo
[4] = Tmax in Sprague-Dawley rat at 20 mg/kg, po by LC-MS/MS analysis; assay type: ADME, organism-based; details: in vivo
[5] = Half life in Sprague-Dawley rat at 20 mg/kg, po by LC-MS/MS analysis; assay type: ADME, organism-based; details: in vivo
[6] = AUC (0 to infinity) in Sprague-Dawley rat at 20 mg/kg, po by LC-MS/MS analysis; assay type: ADME, organism-based; set-up: dose 20 mg/kg, route oral, time infinity; details: in vivo
[7] = MRT in Sprague-Dawley rat at 20 mg/kg, po by LC-MS/MS analysis; assay type: ADME, organism-based; details: in vivo
[8] = Oral bioavailability in Sprague-Dawley rat at 20 mg/kg by LC-MS/MS analysis; assay type: ADME, organism-based; details: in vivo
[9] = Cmax in Sprague-Dawley rat at 10 mg/kg, iv by LC-MS/MS analysis; assay type: ADME, organism-based; set-up: dose 10 mg/kg, route intravenous; details: in vivo
[10] = Tmax in Sprague-Dawley rat at 10 mg/kg, iv by LC-MS/MS analysis; assay type: ADME, organism-based; details: in vivo
[11] = Half life in Sprague-Dawley rat at 10 mg/kg, iv by LC-MS/MS analysis; assay type: ADME, organism-based; details: in vivo
[12] = AUC (0 to infinity) in Sprague-Dawley rat at 10 mg/kg, iv by LC-MS/MS analysis; assay type: ADME, organism-based; set-up: dose 10 mg/kg, time infinity, route intravenous; details: in vivo
[13] = MRT in Sprague-Dawley rat at 10 mg/kg, iv by LC-MS/MS analysis; assay type: ADME, organism-based; details: in vivo
[14] = Clearance in Sprague-Dawley rat at 10 mg/kg, iv by LC-MS/MS analysis; assay type: ADME, organism-based; details: in vivo
[15] = target: Voltage-gated inwardly rectifying potassium channel KCNH2 (Homo sapiens, UniProt Q12809); experiment: Inhibition of human ERG expressed in CHO cells at holding potential of -80 mV after 60 secs by patch clamp assay; assay type: cell-based
Chain of Voltage-gated inwardly rectifying potassium channel KCNH2 (Q12809 whole entry): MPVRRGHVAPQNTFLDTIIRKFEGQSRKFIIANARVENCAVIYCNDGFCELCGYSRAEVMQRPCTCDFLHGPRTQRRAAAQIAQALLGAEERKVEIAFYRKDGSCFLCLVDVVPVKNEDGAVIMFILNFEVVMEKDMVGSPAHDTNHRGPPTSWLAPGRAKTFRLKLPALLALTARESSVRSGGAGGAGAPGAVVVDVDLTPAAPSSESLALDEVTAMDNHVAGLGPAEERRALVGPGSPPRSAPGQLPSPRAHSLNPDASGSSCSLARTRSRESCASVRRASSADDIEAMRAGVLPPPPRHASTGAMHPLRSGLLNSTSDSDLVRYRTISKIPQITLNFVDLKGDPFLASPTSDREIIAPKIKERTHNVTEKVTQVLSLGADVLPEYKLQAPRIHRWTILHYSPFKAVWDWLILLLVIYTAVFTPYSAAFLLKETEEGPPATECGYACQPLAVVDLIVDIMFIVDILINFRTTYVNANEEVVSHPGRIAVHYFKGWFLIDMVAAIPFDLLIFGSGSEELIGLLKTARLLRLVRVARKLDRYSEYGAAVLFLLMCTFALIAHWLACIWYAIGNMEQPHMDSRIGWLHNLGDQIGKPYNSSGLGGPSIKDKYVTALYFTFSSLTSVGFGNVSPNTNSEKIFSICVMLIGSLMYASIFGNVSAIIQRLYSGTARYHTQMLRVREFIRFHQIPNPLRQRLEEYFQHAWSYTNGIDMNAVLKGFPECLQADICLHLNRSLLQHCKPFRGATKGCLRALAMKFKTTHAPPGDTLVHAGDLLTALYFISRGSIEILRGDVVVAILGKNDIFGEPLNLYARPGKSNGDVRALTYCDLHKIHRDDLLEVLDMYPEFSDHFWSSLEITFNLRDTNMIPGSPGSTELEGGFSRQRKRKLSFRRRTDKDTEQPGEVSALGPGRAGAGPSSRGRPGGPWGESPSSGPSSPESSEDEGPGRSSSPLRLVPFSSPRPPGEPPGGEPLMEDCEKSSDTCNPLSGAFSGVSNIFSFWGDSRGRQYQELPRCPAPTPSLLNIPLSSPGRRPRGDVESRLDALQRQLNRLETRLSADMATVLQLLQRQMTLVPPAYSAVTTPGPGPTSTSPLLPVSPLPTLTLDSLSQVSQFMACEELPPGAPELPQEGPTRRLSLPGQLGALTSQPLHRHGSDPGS

Cytochrome P450 1A2 = target: T1, Cytochrome P450 1A2 (Homo sapiens, UniProt P05177); experiment: Inhibition of CYP1A2 (unknown origin); assay type: ADME
T1 sequence (P05177 whole entry): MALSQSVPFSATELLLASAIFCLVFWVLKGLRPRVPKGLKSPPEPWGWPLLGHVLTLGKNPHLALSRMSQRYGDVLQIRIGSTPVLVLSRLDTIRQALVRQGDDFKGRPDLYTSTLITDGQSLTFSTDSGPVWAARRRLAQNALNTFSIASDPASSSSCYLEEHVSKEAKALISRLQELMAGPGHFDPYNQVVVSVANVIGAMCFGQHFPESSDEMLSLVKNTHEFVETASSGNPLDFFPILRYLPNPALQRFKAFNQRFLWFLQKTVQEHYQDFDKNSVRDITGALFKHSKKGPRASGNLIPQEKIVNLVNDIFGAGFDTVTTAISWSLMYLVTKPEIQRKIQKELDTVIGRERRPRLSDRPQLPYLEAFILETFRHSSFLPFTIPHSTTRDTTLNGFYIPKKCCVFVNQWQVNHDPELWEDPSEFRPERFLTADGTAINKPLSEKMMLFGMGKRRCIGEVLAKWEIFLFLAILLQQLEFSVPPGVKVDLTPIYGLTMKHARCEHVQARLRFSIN

Cytochrome P450 2C9 = Cytochrome P450 2C9 (Homo sapiens, UniProt P11712); experiment: Inhibition of CYP2C9 (unknown origin); assay type: ADME
Chain of Cytochrome P450 2C9 (P11712 whole entry): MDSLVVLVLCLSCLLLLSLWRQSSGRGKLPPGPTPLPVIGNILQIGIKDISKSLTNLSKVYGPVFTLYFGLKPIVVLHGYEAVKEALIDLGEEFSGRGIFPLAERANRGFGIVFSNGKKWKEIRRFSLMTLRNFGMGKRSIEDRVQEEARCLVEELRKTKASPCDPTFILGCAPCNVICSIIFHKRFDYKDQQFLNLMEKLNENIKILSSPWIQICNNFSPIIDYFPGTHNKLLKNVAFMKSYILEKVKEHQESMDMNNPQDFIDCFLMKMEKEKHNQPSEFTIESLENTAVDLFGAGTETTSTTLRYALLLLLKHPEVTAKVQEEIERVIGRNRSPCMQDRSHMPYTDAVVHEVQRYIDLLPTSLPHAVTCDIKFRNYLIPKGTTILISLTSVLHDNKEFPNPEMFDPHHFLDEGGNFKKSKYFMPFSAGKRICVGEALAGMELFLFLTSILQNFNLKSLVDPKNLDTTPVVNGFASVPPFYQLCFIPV

Cytochrome P450 2C19 = Cytochrome P450 2C19 (Homo sapiens, UniProt P33261); experiment: Inhibition of CYP2C19 (unknown origin); assay type: ADME
Chain of Cytochrome P450 2C19 (P33261 whole entry): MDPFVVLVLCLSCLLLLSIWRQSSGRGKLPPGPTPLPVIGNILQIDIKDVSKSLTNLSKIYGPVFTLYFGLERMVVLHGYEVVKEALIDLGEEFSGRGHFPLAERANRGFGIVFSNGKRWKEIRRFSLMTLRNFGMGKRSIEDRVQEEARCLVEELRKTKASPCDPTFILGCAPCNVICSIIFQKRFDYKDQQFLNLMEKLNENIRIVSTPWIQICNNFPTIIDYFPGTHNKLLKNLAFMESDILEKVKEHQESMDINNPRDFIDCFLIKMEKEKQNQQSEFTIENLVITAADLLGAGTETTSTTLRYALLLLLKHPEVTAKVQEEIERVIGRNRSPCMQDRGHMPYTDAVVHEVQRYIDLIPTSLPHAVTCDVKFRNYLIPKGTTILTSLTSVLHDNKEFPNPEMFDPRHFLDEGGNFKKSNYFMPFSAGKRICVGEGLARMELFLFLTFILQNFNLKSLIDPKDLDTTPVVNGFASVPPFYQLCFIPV

Cytochrome P450 2D6 = Cytochrome P450 2D6 (Homo sapiens, UniProt P10635); experiment: Inhibition of CYP2D6 (unknown origin); assay type: ADME
Chain of Cytochrome P450 2D6 (P10635 whole entry): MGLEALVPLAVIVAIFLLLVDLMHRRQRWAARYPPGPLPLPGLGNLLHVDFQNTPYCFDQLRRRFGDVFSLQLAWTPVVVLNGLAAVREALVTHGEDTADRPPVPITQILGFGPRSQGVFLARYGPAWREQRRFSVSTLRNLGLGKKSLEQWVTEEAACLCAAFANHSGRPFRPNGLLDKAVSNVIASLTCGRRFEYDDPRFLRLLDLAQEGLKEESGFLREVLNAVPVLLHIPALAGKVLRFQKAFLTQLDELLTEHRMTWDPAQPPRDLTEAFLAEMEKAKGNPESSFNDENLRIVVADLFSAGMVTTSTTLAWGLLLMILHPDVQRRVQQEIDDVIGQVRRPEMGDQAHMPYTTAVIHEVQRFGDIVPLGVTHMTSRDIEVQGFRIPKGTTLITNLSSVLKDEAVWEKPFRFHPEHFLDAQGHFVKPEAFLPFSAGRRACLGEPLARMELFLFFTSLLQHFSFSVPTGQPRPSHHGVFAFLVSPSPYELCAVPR

Cytochrome P450 3A4 [16] = target: T2, Cytochrome P450 3A4 (Homo sapiens, UniProt P08684); experiment: Inhibition of CYP3A4 (unknown origin) using midazolam as substrate; assay type: ADME
T2 sequence (P08684 whole entry): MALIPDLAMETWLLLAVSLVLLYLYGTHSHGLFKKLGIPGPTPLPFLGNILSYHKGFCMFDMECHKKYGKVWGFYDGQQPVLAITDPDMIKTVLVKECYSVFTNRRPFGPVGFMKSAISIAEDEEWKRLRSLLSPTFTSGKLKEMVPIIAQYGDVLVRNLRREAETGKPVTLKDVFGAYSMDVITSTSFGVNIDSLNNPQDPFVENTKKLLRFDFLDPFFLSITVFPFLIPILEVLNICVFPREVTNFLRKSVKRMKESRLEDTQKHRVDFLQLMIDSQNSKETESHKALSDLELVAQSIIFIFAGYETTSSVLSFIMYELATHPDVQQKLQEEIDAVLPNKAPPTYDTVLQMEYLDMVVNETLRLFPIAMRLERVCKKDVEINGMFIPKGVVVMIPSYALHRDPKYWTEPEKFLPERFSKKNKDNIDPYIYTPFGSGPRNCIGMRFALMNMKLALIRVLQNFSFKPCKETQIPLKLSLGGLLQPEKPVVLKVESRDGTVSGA

Cytochrome P450 3A4 [17] = target: T2, Cytochrome P450 3A4; experiment: Inhibition of CYP3A4 (unknown origin) using testosterone as substrate; assay type: ADME
in vitro [18] = details: human, TZM-bl cells
Description: Therapeutic index, ratio of CC50 for human TZM-bl cells to EC50 for CCR5-dependent HIV1 SF162 infected in human TZM-bl cells

in vitro [19] = details: human, PBMC
Description: Therapeutic index, ratio of CC50 for human PBMC to IC50 for CCR5-dependent HIV1 SF162 infected in human PBMC cells

in vitro [20] = details: human, HOS cells
Description: Therapeutic index, ratio of CC50 for human HOS cells to IC50 for CCR5-dependent HIV1 SF162 infected in human HOS cells

in vitro [21] = details: human, PBMC; remark: listed apart in the source
Description: Therapeutic index, ratio of CC50 for human PBMC to IC50 for CCR5-dependent HIV1 KM018 infected in human PBMC

in vitro [22] = details: human, PBMC; remark: listed apart in the source
Description: Therapeutic index, ratio of CC50 for human PBMC to IC50 for CCR5-dependent HIV1 Ba-L infected in human PBMC

in vitro [23] = details: human, HOS cells; remark: listed apart in the source
Description: Therapeutic index, ratio of CC50 for human HOS cells to IC50 for CCR5-dependent HIV1 Ba-L infected in human HOS cells

in vitro [24] = details: human, PM1 cells
Description: Therapeutic index, ratio of CC50 for human PM1 cells to IC50 for CCR5-dependent HIV1 Ba-L infected in human PM1 cells

[25] = tested on: Human immunodeficiency virus 1; experiment: microbe, parasite or virus in culture; details: Human immunodeficiency virus 1, SF162, TZM-bl, 48 h
Description: Antiviral activity against CCR5-dependent HIV1 SF162 infected in human TZM-bl cells assessed as reduction in virus infection measured after 48 hrs post infection by luciferase reporter gene assay

[26] = tested on: Human immunodeficiency virus 1; experiment: microbe, parasite or virus in culture; details: Human immunodeficiency virus 1, SF162, PBMC, 168 h
Description: Antiviral activity against CCR5-dependent HIV1 SF162 infected in human PBMC assessed as reduction in virus infection measured after 7 days by luciferase reporter gene assay

[27] = tested on: Human immunodeficiency virus 1; experiment: microbe, parasite or virus in culture; details: Human immunodeficiency virus 1, SF162, HOS, 120 h
Description: Antiviral activity against CCR5-dependent HIV1 SF162 infected in human HOS cells assessed as reduction in virus infection measured after 5 days by luciferase reporter gene assay

[28] = tested on: Human immunodeficiency virus 1; experiment: microbe, parasite or virus in culture; details: Human immunodeficiency virus 1, KM018, PBMC, 168 h
Description: Antiviral activity against CCR5-dependent HIV1 KM018 infected in human PBMC assessed as reduction in virus infection measured after 7 days by luciferase reporter gene assay

[29] = tested on: Human immunodeficiency virus 1; experiment: microbe, parasite or virus in culture; details: Human immunodeficiency virus 1, Ba-L, PBMC, 168 h
Description: Antiviral activity against CCR5-dependent HIV1 Ba-L infected in human PBMC assessed as reduction in virus infection measured 7 days by luciferase reporter gene assay

[30] = tested on: Human immunodeficiency virus 1; experiment: microbe, parasite or virus in culture; details: Human immunodeficiency virus 1, Ba-L, HOS, 120 h
Description: Antiviral activity against CCR5-dependent HIV1 Ba-L infected in human HOS cells assessed as reduction in virus infection measured after 5 days by luciferase reporter gene assay

[31] = tested on: Human immunodeficiency virus 1; experiment: microbe, parasite or virus in culture; details: Human immunodeficiency virus 1, Ba-L, PM1, 120 h
Description: Antiviral activity against CCR5-dependent HIV1 Ba-L infected in human PM1 cells assessed as reduction in virus infection measured after 5 days by luciferase reporter gene assay

Cc1nnc(C(C)C)n1[C@@H]1C[C@H]2CC[C@@H](C1)N2CC[C@H](NC(=O)C1CCCCC1)c1cccs1
IC50 [1]: 2.3 nM | CC50 at 48 h [2]: > 200000 nM | Cmax [3]: 631 ng/mL | Tmax [4]: 15 min | half-life [5]: 69.6 min | AUC(0-inf) [6]: 1510 ng·h/mL | MRT [7]: 126 min | bioavailability [8]: 14.8% | Cmax [9]: 4320 ng/mL | Tmax [10]: 15 min | half-life [11]: 18.6 min | AUC(0-inf) [12]: 5110 ng·h/mL | MRT [13]: 48 min | clearance [14]: 32.7 mL/min/kg | IC50 [15]: 2060 nM | IC50 (Cytochrome P450 1A2): > 25000 nM | IC50 (Cytochrome P450 2C9): > 25000 nM | IC50 (Cytochrome P450 2C19): > 25000 nM | IC50 (Cytochrome P450 2D6): 15100 nM | IC50 (Cytochrome P450 3A4 [16]): 12300 nM | IC50 (Cytochrome P450 3A4 [17]): 21700 nM | selectivity ratio (in vitro [18]): > 18000 | selectivity ratio (in vitro [19]): 509 | selectivity ratio (in vitro [20]): 7800 | selectivity ratio (in vitro [21]): 529 | selectivity ratio (in vitro [22]): 575 | selectivity ratio (in vitro [23]): 27000 | selectivity ratio (in vitro [24]): 44000 | IC50 [25]: 11.1 nM | IC50 [26]: 524 nM | IC50 [27]: 43.7 nM | IC50 [28]: 504 nM | IC50 [29]: 464 nM | IC50 [30]: 12.5 nM | IC50 [31]: 8.2 nM
